Here are results for 13 compounds from PubChem BioAssay (NCI).

Several values for one entry are separate records, joined by “and”; a condition that tells them apart may be missing. Equal values may be shown once.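 Compound exposure: 48 hours, 5 concentrations, 96-well plates. At the GI50, growth is halved. At the TGI there is no net growth.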 Bounds are passed on as bounds.

The first experiment concerns A498 renal. Put plainly: growth of human tumour cells (NCI), 48 h.
For `CNC(=O)Nc1ccc(-c2nc(N3CCOCC3)nc3c2cnn3C2CCOCC2)cc1`, the GI50 was less than 0.0218 µM and the TGI was determined as 0.148 µM.

In the case of `N/C(=N\OC(=O)c1ccccc1)C(C(=O)NOC(=O)c1ccccc1)C1CCCCC1` (stereo not given), the GI50 was 14.8 µM and the TGI amounted to 28.7 µM.

As to `CCOc1ccc(N=Nc2ccc3cc(/C(C)=N/NC(=O)/C(C#N)=C\c4ccc(N(CCC#N)CCC#N)cc4)c(=O)oc3c2)cc1`, the TGI was more than 10 µM.

With `O=C(O)c1cc[c]([Hg][S]c2ncnc3nc[nH]c23)cc1`, the GI50 was more than 35.3 µM and the TGI is more than 87.1 µM.

Regarding `CC(C)(C)OC(=O)NCC(C#N)CNC(=O)OC(C)(C)C`, the TGI is more than 100 µM.

On to `O=C(Nc1ccc(OC(F)(F)F)cc1)c1sccc1NCc1ccnc2ccccc12`, for which the GI50 was 3 µM and the TGI was more than 40.9 µM.

`CCN(CC)c1ccc(NC(=S)NN(C)C)cc1`: the TGI is more than 10 µM.

Turning to `COc1ccc(-c2cc(-c3ccc(Cl)cc3)c(C#N)c(=O)n2CCCCC(=O)Nc2ccccc2N)cc1`, the GI50 was 1.79 µM and the TGI is 48.9 µM.

As for `CN1CCCN(CCNc2nccc(-c3c(-c4cccc(O)c4)nc4sccn34)n2)S1(=O)=O`, the GI50 is 5.31 µM and 3.4 µM; the TGI was 17.5 µM and 12.6 µM.

As for `CCOC(=O)c1c(NC(=O)c2ccc(C(C)C)cc2)sc2c(CN(C)C)c(O)ccc12`, the GI50 was 1.86 µM and the TGI was found to be 9.02 µM.

For the compound `COc1ccc(C(=O)N2c3ccccc3Sc3ccccc32)c(F)c1`, the GI50 was 0.33 µM and the TGI worked out at 8.68 µM.

For the compound `CC(O)CNC1=CC(=O)C(=O)c2ccccc21` (stereo not given), the TGI came out at 62.9 µM.

Take `CC1(C)N=C(N)N=C(N)N1c1ccc(CCc2ccccc2)c(Cl)c1`: the GI50 is 0.788 µM and the TGI is 15 µM.

A further experiment concerns CCRF-CEM leukemia. Nature of the experiment: growth of human tumour cells (NCI), 48 h.
`CNC(=O)Nc1ccc(-c2nc(N3CCOCC3)nc3c2cnn3C2CCOCC2)cc1`: the GI50 was 0.276 µM and the TGI is more than 100 µM.

For the compound `N/C(=N\OC(=O)c1ccccc1)C(C(=O)NOC(=O)c1ccccc1)C1CCCCC1` (stereo not given), the GI50 was 2.71 µM and the TGI came to 9.79 µM.

`CCOc1ccc(N=Nc2ccc3cc(/C(C)=N/NC(=O)/C(C#N)=C\c4ccc(N(CCC#N)CCC#N)cc4)c(=O)oc3c2)cc1` came in with a TGI of more than 10 µM.

Consider `O=C(O)c1cc[c]([Hg][S]c2ncnc3nc[nH]c23)cc1`, for which the GI50 is 4.55 µM and the TGI worked out at 21.8 µM.

The compound `CC(C)(C)OC(=O)NCC(C#N)CNC(=O)OC(C)(C)C` had a TGI of more than 100 µM.

Regarding `O=C(Nc1ccc(OC(F)(F)F)cc1)c1sccc1NCc1ccnc2ccccc12`, the GI50 is 3.72 µM and the TGI is more than 100 µM.

`CCN(CC)c1ccc(NC(=S)NN(C)C)cc1` returned a TGI of more than 10 µM.

In the case of `COc1ccc(-c2cc(-c3ccc(Cl)cc3)c(C#N)c(=O)n2CCCCC(=O)Nc2ccccc2N)cc1`, the GI50 was 4.87 µM and the TGI is more than 100 µM.

For `CN1CCCN(CCNc2nccc(-c3c(-c4cccc(O)c4)nc4sccn34)n2)S1(=O)=O`, the GI50 was 8.29 µM and 4.7 µM; the TGI is 75 µM and 46.6 µM.

As for `CCOC(=O)c1c(NC(=O)c2ccc(C(C)C)cc2)sc2c(CN(C)C)c(O)ccc12`, the GI50 was 2.33 µM and the TGI worked out at 7.35 µM.

As for `COc1ccc(C(=O)N2c3ccccc3Sc3ccccc32)c(F)c1`, the GI50 was 0.522 µM and the TGI was more than 100 µM.

For the compound `CC(O)CNC1=CC(=O)C(=O)c2ccccc21` (stereo not given), the TGI was more than 100 µM.

For `CC1(C)N=C(N)N=C(N)N1c1ccc(CCc2ccccc2)c(Cl)c1`, the GI50 was 0.0597 µM and the TGI is 15.3 µM.

For a further experiment, the system named is DU-145 prostate. Put plainly: growth of human tumour cells (NCI), 48 h.
With `CNC(=O)Nc1ccc(-c2nc(N3CCOCC3)nc3c2cnn3C2CCOCC2)cc1`, the GI50 is 0.288 µM and the TGI was more than 100 µM.

Regarding `N/C(=N\OC(=O)c1ccccc1)C(C(=O)NOC(=O)c1ccccc1)C1CCCCC1` (stereo not given), the GI50 is 2.76 µM and the TGI came out at 10.3 µM.

The compound `CCOc1ccc(N=Nc2ccc3cc(/C(C)=N/NC(=O)/C(C#N)=C\c4ccc(N(CCC#N)CCC#N)cc4)c(=O)oc3c2)cc1` registered a TGI of more than 10 µM.

In the case of `O=C(O)c1cc[c]([Hg][S]c2ncnc3nc[nH]c23)cc1`, the GI50 was 7.47 µM and the TGI was 25.1 µM.

On to `CC(C)(C)OC(=O)NCC(C#N)CNC(=O)OC(C)(C)C`, for which the TGI is more than 100 µM.

Consider `O=C(Nc1ccc(OC(F)(F)F)cc1)c1sccc1NCc1ccnc2ccccc12`, for which the GI50 was 3.65 µM and the TGI was more than 100 µM.

Compound `CCN(CC)c1ccc(NC(=S)NN(C)C)cc1` yielded a TGI of more than 10 µM.

In the case of `COc1ccc(-c2cc(-c3ccc(Cl)cc3)c(C#N)c(=O)n2CCCCC(=O)Nc2ccccc2N)cc1`, the GI50 was 16.3 µM and the TGI was more than 100 µM.

For the compound `CN1CCCN(CCNc2nccc(-c3c(-c4cccc(O)c4)nc4sccn34)n2)S1(=O)=O`, the GI50 is 6.84 µM and 6.32 µM; the TGI was 46.9 µM and > 59.3 µM.

As to `CCOC(=O)c1c(NC(=O)c2ccc(C(C)C)cc2)sc2c(CN(C)C)c(O)ccc12`, the GI50 was 2.2 µM and the TGI came to 5.21 µM.

Consider `COc1ccc(C(=O)N2c3ccccc3Sc3ccccc32)c(F)c1`, for which the GI50 was 1.4 µM and the TGI is more than 100 µM.

As to `CC(O)CNC1=CC(=O)C(=O)c2ccccc21` (stereo not given), the TGI came to 29.1 µM.

`CC1(C)N=C(N)N=C(N)N1c1ccc(CCc2ccccc2)c(Cl)c1`: the GI50 is 0.0911 µM and the TGI was 15.8 µM.

Another experiment has as its system HCT-116 colon. Put plainly: growth of human tumour cells (NCI), 48 h.
Turning to `CNC(=O)Nc1ccc(-c2nc(N3CCOCC3)nc3c2cnn3C2CCOCC2)cc1`, the GI50 was 0.422 µM and the TGI is more than 100 µM.

On to `N/C(=N\OC(=O)c1ccccc1)C(C(=O)NOC(=O)c1ccccc1)C1CCCCC1` (stereo not given), for which the GI50 was 3.45 µM and the TGI turned out to be 13 µM.

`CCOc1ccc(N=Nc2ccc3cc(/C(C)=N/NC(=O)/C(C#N)=C\c4ccc(N(CCC#N)CCC#N)cc4)c(=O)oc3c2)cc1` came in with a TGI of more than 10 µM.

Regarding `O=C(O)c1cc[c]([Hg][S]c2ncnc3nc[nH]c23)cc1`, the GI50 was 4.89 µM and the TGI was 22.3 µM.

Regarding `CC(C)(C)OC(=O)NCC(C#N)CNC(=O)OC(C)(C)C`, the TGI was more than 100 µM.

For `O=C(Nc1ccc(OC(F)(F)F)cc1)c1sccc1NCc1ccnc2ccccc12`, the GI50 is 2.12 µM and the TGI was more than 100 µM.

Consider `CCN(CC)c1ccc(NC(=S)NN(C)C)cc1`, for which the TGI is more than 10 µM.

Take `COc1ccc(-c2cc(-c3ccc(Cl)cc3)c(C#N)c(=O)n2CCCCC(=O)Nc2ccccc2N)cc1`: the GI50 was 3.25 µM and the TGI turned out to be 20.7 µM.

With `CN1CCCN(CCNc2nccc(-c3c(-c4cccc(O)c4)nc4sccn34)n2)S1(=O)=O`, the GI50 was 2.96 µM and 4.39 µM; the TGI was 14.9 µM and 18.8 µM.

In the case of `CCOC(=O)c1c(NC(=O)c2ccc(C(C)C)cc2)sc2c(CN(C)C)c(O)ccc12`, the GI50 was 1.78 µM and the TGI came out at 3.36 µM.

Consider `COc1ccc(C(=O)N2c3ccccc3Sc3ccccc32)c(F)c1`, for which the GI50 is 0.393 µM and the TGI is more than 100 µM.

`CC(O)CNC1=CC(=O)C(=O)c2ccccc21` (stereo not given) showed a TGI of 33.9 µM.

As for `CC1(C)N=C(N)N=C(N)N1c1ccc(CCc2ccccc2)c(Cl)c1`, the GI50 was 0.0347 µM and the TGI was 14 µM.

The subject of a further experiment is HOP-62 NSCLC. Nature of the experiment: growth of human tumour cells (NCI), 48 h.
`CNC(=O)Nc1ccc(-c2nc(N3CCOCC3)nc3c2cnn3C2CCOCC2)cc1`: the GI50 was 0.23 µM and the TGI was determined as 4.38 µM.

With `N/C(=N\OC(=O)c1ccccc1)C(C(=O)NOC(=O)c1ccccc1)C1CCCCC1` (stereo not given), the GI50 was 2.87 µM and the TGI was determined as 9.09 µM.

Compound `CCOc1ccc(N=Nc2ccc3cc(/C(C)=N/NC(=O)/C(C#N)=C\c4ccc(N(CCC#N)CCC#N)cc4)c(=O)oc3c2)cc1` gave a TGI of more than 10 µM.

As to `O=C(O)c1cc[c]([Hg][S]c2ncnc3nc[nH]c23)cc1`, the GI50 is 10.7 µM and the TGI is 26.1 µM.

As for `CC(C)(C)OC(=O)NCC(C#N)CNC(=O)OC(C)(C)C`, the TGI was more than 100 µM.

Take `O=C(Nc1ccc(OC(F)(F)F)cc1)c1sccc1NCc1ccnc2ccccc12`: the GI50 is 9.55 µM and the TGI was more than 100 µM.

Take `CCN(CC)c1ccc(NC(=S)NN(C)C)cc1`: the TGI is more than 10 µM.

On to `COc1ccc(-c2cc(-c3ccc(Cl)cc3)c(C#N)c(=O)n2CCCCC(=O)Nc2ccccc2N)cc1`, for which the GI50 is 12.7 µM and the TGI was more than 100 µM.

Consider `CN1CCCN(CCNc2nccc(-c3c(-c4cccc(O)c4)nc4sccn34)n2)S1(=O)=O`, for which the GI50 is 30.6 µM and 30.9 µM; the TGI is 75 µM and > 100 µM.

With `CCOC(=O)c1c(NC(=O)c2ccc(C(C)C)cc2)sc2c(CN(C)C)c(O)ccc12`, the GI50 was 2.2 µM and the TGI stood at 5.89 µM.

Consider `COc1ccc(C(=O)N2c3ccccc3Sc3ccccc32)c(F)c1`, for which the GI50 was 0.968 µM and the TGI was more than 100 µM.

In turn, `CC(O)CNC1=CC(=O)C(=O)c2ccccc21` (stereo not given) displayed a TGI of 32.4 µM.

As to `CC1(C)N=C(N)N=C(N)N1c1ccc(CCc2ccccc2)c(Cl)c1`, the GI50 is 0.268 µM and the TGI came out at 12.4 µM.
